Assay results published in patent US5641760A, “Method of treating candida infection” (Pence, Inc., priority 1994, dated 1997).

Legend:
[1] = tested on: Candida albicans strain #40 fimbriae (enriched fimbriae EF, 66 kDa fimbrial subunit/adhesin protein); test: Microtiter plate binding of fimbriae to immobilized glycosphingolipids; conditions: GSL immobilized in microtiter wells (0.5 μg/well)
Procedure: Binding of Candida fimbriae to GSLs was further assessed using an assay in which GSLs were immobilized on microtiter plates. […] The amount of fimbriae bound is represented as the absorbance values measured at 405 nm. The concentration of fimbrial protein required for half-maximal binding was determined to be 8 μg/ml under the assay conditions, indicating a reasonably high affinity of fimbriae for asialo-GM1.
Polystyrene microtiter plate wells (Nunc) were coated with asialo-GM1 or ceramide trihexoside (CTH) (Sigma Chem. Co., St. Louis, Mo.). Aliquots of the GSLs (5 μg/ml resuspended in methanol) were added into the wells (100 μl/well) and the plates were incubated overnight at 4° C. The wells were washed three times with 250 μl/well of 10 mM phosphate buffered saline pH 7.4 containing 150 mM NaCl (PBS) supplemented with 0.05% (w/v) bovine serum albumin (Buffer A). […] Wells were washed 5 times with 250 μl/well of Buffer A. Antibody binding to EF was assessed by the addition of a goat anti-mouse heavy and light chain [IgG(H+L)] immunoglobulin G-peroxidase conjugates (Jackson Laboratories) to each well (100 μl/well) and incubated for 1 hour at 37° C. […] The reaction was stopped by an addition of 125 μl/well of 4 mM sodium azide and the absorbance at 405 nm was recorded.

[2] = tested on: Candida albicans strain #40 fimbriae (enriched fimbriae EF, 66 kDa fimbrial subunit/adhesin protein); test: Inhibition of fimbriae binding to immobilized glycosphingolipids by free glycosphingolipids
Procedure: The binding specificity to GSLs was assessed in experiments in which free GSLs were tested for their abilities to inhibit binding of C. albicans fimbriae to immobilized GSLs. These experiments were carried out using the microtiter plate assay described above, and as further detailed in Example 5B. C. albicans fimbriae (50 μg/ml) were preincubated with varying concentrations of asialo-GM1 or CTH at 37° C. for an hour prior to addition into the precoated microtiter wells. In this assay, GSLs were suspended in phosphate buffered saline (PBS) at a sufficiently low concentration to prevent micellar formation. C. albicans fimbriae binding to immobilized asialo-GM1 was reduced by 78% (Diamonds, FIG. 11B) by asialo-GM1.
Polystyrene microtiter plate wells (Nunc) were coated with asialo-GM1 or ceramide trihexoside (CTH) (Sigma Chem. Co., St. Louis, Mo.). Aliquots of the GSLs (5 μg/ml resuspended in methanol) were added into the wells (100 μl/well) and the plates were incubated overnight at 4° C. The wells were washed three times with 250 μl/well of 10 mM phosphate buffered saline pH 7.4 containing 150 mM NaCl (PBS) supplemented with 0.05% (w/v) bovine serum albumin (Buffer A). Excess binding sites were blocked by the addition of 200 μl/well of 5% (w/v) BSA in PBS pH 7.4 and incubation at 37° C. for 1 hour. Wells were washed three times with 250 μl/well of buffer A. Enriched fimbriae ranging from 0 to 40 μg protein/ml in Buffer A were added to the wells (100 μl/well) and incubated for 2 hour at 37° C. Aliquots of mouse anti-EF monoclonal antibodies, Fm16 (diluted 1:500), was added to each well (100 μl) and incubated at 37° C. for 2 hours. Wells were washed 5 times with 250 μl/well of Buffer A. Antibody binding to EF was assessed by the addition of a goat anti-mouse heavy and light chain [IgG(H+L)] immunoglobulin G-peroxidase conjugates (Jackson Laboratories) to each well (100 μl/well) and incubated for 1 hour at 37° C. […] The reaction was stopped by an addition of 125 μl/well of 4 mM sodium azide and the absorbance at 405 nm was recorded. […]

[3] = tested on: Candida albicans fimbriae (binding to human BECs); test: Inhibition of fimbriae binding to human buccal epithelial cells (BECs); assay type: cell-based; conditions: fimbriae 50 μg preincubated with competitor 1 h at 37° C., 2.0×10^5 BECs
Procedure: The percent inhibition is the inhibition of binding in the presence of the competing antigens with respect to binding observed in the absence of any competitors.
The fimbrial adherence assay was performed using a Manifold filtration apparatus equipped with individual vacuum stopcocks (Model FH 225V, Hoefer Scientific Instruments). Polycarbonate filters, 12 μm pore size (Nucleopore Costar Corp.), were pre-incubated overnight at 4° C. with 50 ml of PBS pH 7.2, containing 0.45% (v/v) Tween 20. The pretreated filters were placed into each chamber and washed with 2.5 ml of PBS. 1 ml containing 2.0×10^5 BECs in PBS was added to each chamber. Enriched fimbriae (100 μl/chamber, ranging from 0 to 80 μg fimbriae protein/ml) in PBS containing 0.05% (v/v) Tween-20 was added to each chamber and incubated with the BECs for 1.5 hours at room temperature. Unbound fimbriae were removed with washes of 2.5 ml of PBS. Mouse anti-C. albicans fimbriae monoclonal antibody (ascites fluid diluted 1:3000 with PBS) was added to the BECs (1.2 ml/chamber) and incubated for 1.5 hour at room temperature. BECs were washed five times with 2.5 ml of PBS. Goat anti-mouse IgG(H+L)-peroxidase conjugates (Jackson Laboratories) diluted 1:5000 with PBS was added (1.0 ml/chamber) and incubated for another hour at room temperature. The cells were then washed seven times with 2.5 ml/chamber of PBS. The polycarbonate filters containing BECs were removed from the filtration manifold and placed into glass scintillation vials. The horseradish peroxidase substrate solution (ABTS) was added to each vial (1 ml/vial) and incubated for 30 min at room temperature on a shaker at 100 rpm. The reaction was stopped by the addition of 4 mM sodium azide (200 μl/vial). The substrate solution was pipetted into Eppendorf tubes and centrifuged at 5,000 g for 3 minutes. Aliquots of the supernatants were pipetted into microtiter wells (200 μl/well) and the resulting absorbance at 405 nm was recorded with a Titertek Multiskan Plus microplate recorder. […]

gangliotetraosylceramide: βGal(1-3)βGalNAc(1-4)βGal(1-4)βGlc(1-1)Cer [asialo-GM1]
Concentration of fimbrial protein required for half-maximal binding ([1]; the concentration is that of fimbrial protein): 8 µg/mL | Reduction of fimbriae binding to immobilized asialo-GM1 ([2]; fimbriae 50 μg/ml preincubated with competitor (0 to 15 μg/ml) 1 h at 37° C.): 78% | Concentration required for half-maximal inhibition ([2]; fimbriae 50 μg/ml, immobilized asialo-GM1): 1.44 µg/mL | Inhibition of C. albicans fimbriae binding to BECs ([3]; competitor concentration not stated): 80%

ceramide trihexoside [CTH, ceramide trihexoside [aGal(1-4)βGal(1-4)βGlc(1-1)Cer]]
Binding of fimbriae to glycosphingolipid coated on wells ([1]; EF 0 to 40 μg protein/ml): failed to bind | Competition of fimbriae binding ([2]; fimbriae 50 μg/ml preincubated with competitor (0 to 15 μg/ml)): No competition | Inhibition of C. albicans fimbriae binding to BECs [3]: failed to inhibit
